Data as given in patent US7785611B2, “Parenteral vaccine formulations and uses thereof” (ALK-Abello A/S, priority 2000, dated 2010).

How the values were obtained:
[1] = tested on: TT-specific antibodies of the IgG class; set-up: species or system BALB/Ca mice; conditions: mouse, in vivo, sc
Method: (§1) Tetanus toxoid (TT) containing 3.0 mg protein/ml, (obtained from Statens Serum Institut, DK-2300 Copenhagen S, Denmark).
(§2) Prepared from Mg(OH)2 gel (Reheis, USA). • Magnesium carbonate hydroxide pentahydrate, (MgCO3)4Mg(OH)25H2O, 0.05 M Mg^2+. […] Preparation of the Vaccine Formulations: […]
(§3) TT was dissolved or diluted to a concentration 10 times that of the concentration in the final vaccine formulation. The adjuvant was dissolved or diluted to a concentration five times that of the concentration in the final vaccine formulation, with regard to the cation. 1 volume TT solution was slowly mixed with 2 volumes adjuvant, and left stirring over night at 4° C. The following day 7 volumes Coca 0.0 buffer (0.25% sodium hydrogen carbonate and 0.5% sodium chloride) was slowly added. The adjuvant free vaccine was prepared as above, with the modification that the adjuvant was substituted with Coca 0.0 buffer. […]
(§4) Blood samples were drawn from the retro orbital vein every 7 days, starting on day 0. Serum was separated from the blood sample, and stored at −20° C., until analysed.
(§5) Serum samples were analysed for the presence of TT-specific immune response by means of a direct enzyme linked immunosorbent assay (ELISA), measuring TT-specific antibodies of the IgG class. […]
(§6) Bound antibodies were detected by serial incubations of the plate with a biotinylated, polyclonal antiserum to mouse IgG (obtained from Jackson Laboratories, Bar Harbour, Me., USA) followed by a streptavidine-horseradish peroxidase conjugate (obtained from DAKO A/S, Glostrup, Denmark). The plates were developed for 20 minutes with 100 μl readymade TMB substrate (Kem-En-Tech, Denmark) per well, and the reaction as stopped with an equal volume of 1M H2SO4.
(§7) The developed colour reaction was measured as absorption at 450 nm. […]
(§8) The strength of the TT-specific antibody response in each serum sample was measured as an arbitrary titre, determined as the serum dilution giving an absorption signal equal to 50% of that obtained with a 3000 fold dilution of the TT-specific monoclonal antibody. […]

[2] = tested on: TT-specific antibodies of the IgG class; set-up: species or system BALB/Ca mice; conditions: mouse, in vivo
Method: as §1, §2, §3, §4, §5, §6, §7, §8

[3] = current use as antacid, laxative, topical or cosmetic; cited from earlier work
[4] = magnesium hydroxide alone; cited from earlier work

Molecule: [Mg+2].[OH-].[OH-] [magnesium hydroxide, Magnesium hydroxide]
- potency at inducing TT-specific antibodies compared with vaccine formulation containing Al(OH)3 [1]: more potent
- onset of specific immune response compared with Al(OH)3 formulation [2]: earlier onset
- Dose (recommended maximum dose) [3]: 0.5 g per kg bodyweight
- adsorbent activity [4]: low

Molecule: Magnesium carbonate hydroxide pentahydrate [magnesium carbonate pentahydrate]
- potency at inducing TT-specific antibodies compared with vaccine formulation containing Al(OH)3 [1]: more potent
- onset of specific immune response compared with Al(OH)3 formulation [2]: earlier onset
- Dose (recommended maximum dose) [3]: 0.5 g per kg bodyweight

Molecule: Titanium dioxide
- potency at inducing TT-specific antibodies compared with vaccine formulation containing Al(OH)3 [1]: more potent
- onset of specific immune response compared with Al(OH)3 formulation [2]: earlier onset
- Dose (recommended maximum dose) [3]: 1.0 g per kg bodyweight
